Our source for the Bliss excess values is the supplement of paper PMC11061612.

What all share (assay): Bliss excess, mean over the matrix (fraction); higher = more synergy
The subject of experiment [1] is Hs-633T (Other Solid Carcinomas). In short, it runs like this: (§1)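 After 24 hours at 37°C and 5% CO2 in 1536-well plates, cells in DMEM/F12 or RPMI plus 10% FBS received two-drug dose matrices for 72 hours. Viability came from CellTiter-Glo 2.0 luminescence and was scaled as inhibition, anchored at 0 by vehicle wells and at 1 by blank wells. Combination Emax is taken as the second-highest inhibition in the matrix, and Bliss excess as the observed combination effect less EA + EB − EA·EB, with EA and EB the single-agent effects.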

Experiment [2] relates to MDA-MB-468 (Breast Carcinoma). In short, it runs like this:
as §1

The next experiment relates to HMV-II (Melanoma). In short, it runs like this:
as §1

For experiment [3], the system named is OC-314 (Ovarian Carcinoma). In short, it runs like this: as §1
The next experiment has as its system SH-4 (Melanoma). In short, it runs like this: as §1
For experiment [4], the system named is LU-139 (Small Cell Lung Carcinoma). In short, it runs like this: as §1
Experiment [5] has as its system LoVo (Colorectal Carcinoma). In short, it runs like this:
as §1

The subject of a further experiment is NCI-H2795 (Mesothelioma). In short, it runs like this: as §1
Experiment [6] concerns HO-1-u-1 (Oral Cavity Carcinoma). In short, it runs like this:
as §1

For experiment [7], the system named is SK-OV-3 (Ovarian Carcinoma). In short, it runs like this: as §1
The test system of experiment [8] is SW1116 (Colorectal Carcinoma). In short, it runs like this: as §1
For experiment [9], the system named is RPMI-6666 (Non-Cancerous). In short, it runs like this: as §1
The test system of experiment [10] is CAL-54 (Kidney Carcinoma). In short, it runs like this: as §1
Experiment [11] relates to RT-112 (Bladder Carcinoma). In short, it runs like this:
as §1

In experiment [12] the test system is CAPAN-1 (Pancreatic Carcinoma). In short, it runs like this: as §1
Experiment [13] has as its system SW1271 (Small Cell Lung Carcinoma). In short, it runs like this: as §1
Experiment [14] concerns RKO (Colorectal Carcinoma). In short, it runs like this:
as §1

The next experiment deals with NCI-H28 (Mesothelioma). In short, it runs like this:
as §1

The subject of experiment [15] is PCI-30 (Head and Neck Carcinoma). In short, it runs like this: as §1
For experiment [16], the system named is SU-DHL-6 (B-Cell Non-Hodgkin's Lymphoma). In short, it runs like this:
as §1

As for `N#Cc1cnc(Nc2cc(NC[C@H]3CNCCO3)c(C(F)(F)F)cn2)cn1` [SRA737] + CCc1c2c(nc3ccc(O)cc13)-c1cc3c(c(=O)n1C2)COC(=O)[C@]3(O)CC [SN-38] (first compound max 10 µM, 7x7, partner max 0.3 µM), the Bliss excess in experiment [1] was -0.0402; in [2], -0.0136; with HMV-II (Melanoma) it was -0.0523; in [3], -0.0056; in the experiment on SH-4 (Melanoma), -0.111; in [4], -0.0305. Besides, the Bliss excess in experiment [5] is -0.0227; with NCI-H2795 (Mesothelioma), -0.0977; in experiment [6], 0.106; in experiment [7], -0.0464; in [8] it was 0.0312; in [9], -0.0707. Moreover, the Bliss excess in experiment [10] was -0.0693; in experiment [11] it was 0.138; in experiment [12], -0.0974; in [13], -0.0752; in experiment [14], -0.0398; with NCI-H28 (Mesothelioma), -0.104. Moreover, the Bliss excess was -0.0079 in experiment [15] and 0.0295 in experiment [16].

Take `CN(CCO)CC[C@H](CSc1ccccc1)Nc1ccc(S(=O)(=O)NC(=O)c2ccc(N3CCC([C@@H](O)c4ccccc4-c4ccc(Cl)cc4)CC3)cc2)cc1S(=O)(=O)C(F)(F)F` [AZD4320] + Nc1ccn([C@@H]2O[C@H](CO)[C@@H](O)C2(F)F)c(=O)n1 [Gemcitabine] (first compound max 1 µM, 7x7, partner max 0.3 µM): the Bliss excess in [1] was 0.0434; in experiment [2] it was -0.0034; in the experiment on HMV-II (Melanoma) it was -0.0109; in [3], 0.0434; with SH-4 (Melanoma), 0.0224; in experiment [4] it was 0.0388. The Bliss excess in [5] was -0.0476; with NCI-H2795 (Mesothelioma), -0.0094; in experiment [6] it was 0.0383; in experiment [7] it was -0.0695; in experiment [8] it was -0.0292; in [9] it was -0.0051. In addition, the Bliss excess in experiment [10] was -0.0034; in experiment [11] it was -0.0057; in experiment [12], 0.0166; in experiment [13] it was 0.0692; in [14], -0.0195; with NCI-H28 (Mesothelioma), 0.0018. Also, the values for the Bliss excess in experiment [15] and in experiment [16] were -0.0272 and -0.0131, respectively.

Consider `C=CCn1c(=O)c2cnc(Nc3ccc(N4CCN(C)CC4)cc3)nc2n1-c1cccc(C(C)(C)O)n1` [AZD1775] + Nc1ccn([C@@H]2O[C@H](CO)[C@@H](O)C2(F)F)c(=O)n1 [Gemcitabine] (first compound max 1 µM, partner max 0.3 µM), for which the Bliss excess in experiment [1] was 0.0094; in experiment [2], 0.0073; in the experiment on HMV-II (Melanoma), -0.0355; in experiment [3] it was 0.0576; in the experiment on SH-4 (Melanoma), -0.0092; in experiment [4] it was -0.0304. The Bliss excess is -0.0005 in experiment [5]; -0.0549 in the experiment with NCI-H2795 (Mesothelioma); -0.0446 in experiment [6]; -0.0635 in experiment [7]; -0.0077 in experiment [8]; -0.0197 in [9]. In addition, the Bliss excess was -0.0031 in [10]; 0.148 in experiment [11]; -0.0588 in experiment [12]; -0.0558 in experiment [13]; -0.0367 in [14]; -0.0576 in the experiment on NCI-H28 (Mesothelioma). Further, the Bliss excess in experiment [15] turned out to be 0.0252; in experiment [16], 0.0556.

Turning to `Cc1c2c(nn1C)CSCc1cc(n(C)n1)CSc1cc(c3ccccc3c1)OCCCc1c(C(=O)O)n(C)c3c-2c(Cl)ccc13` [AZD5991] + Nc1ccn([C@@H]2O[C@H](CO)[C@@H](O)C2(F)F)c(=O)n1 [Gemcitabine] (first compound max 1 µM, 7x7, partner max 0.3 µM), the Bliss excess in experiment [1] is -0.0611; in experiment [2], -0.0097; in the experiment on HMV-II (Melanoma), 0.0013; in experiment [3] it was -0.0084; with SH-4 (Melanoma), -0.0246; in [4] it was -0.0133. The Bliss excess in experiment [5] is -0.0693; in the experiment on NCI-H2795 (Mesothelioma) it was -0.0687; in experiment [6], 0.0217; in [7], -0.0401; in [8] it was -0.0213; in [9], -0.0411. In addition, the Bliss excess was 0.0012 in [11]; -0.0092 in [12]; -0.0354 in [13]; -0.0368 in [14]; -0.061 in the experiment on NCI-H28 (Mesothelioma); -0.0531 in experiment [15]. Besides, in experiment [16], the Bliss excess was determined as 0.0242.

On to `Cc1c2c(nn1C)CSCc1cc(n(C)n1)CSc1cc(c3ccccc3c1)OCCCc1c(C(=O)O)n(C)c3c-2c(Cl)ccc13` [AZD5991] + CC(=O)O[C@H]1C(=O)[C@@]2(C)[C@H]([C@H](OC(=O)c3ccccc3)[C@]3(O)C[C@H](OC(=O)[C@H](O)[C@@H](NC(=O)c4ccccc4)c4ccccc4)C(C)=C1C3(C)C)[C@]1(OC(C)=O)CO[C@@H]1C[C@@H]2O [Paclitaxel] (first compound max 1 µM, 7x7, partner max 3 µM), for which the Bliss excess was 0.005 in experiment [1]; -0.051 in [2]; 0.0547 in the experiment on HMV-II (Melanoma); -0.0078 in experiment [3]; -0.0331 in the experiment with SH-4 (Melanoma); -0.0361 in [4]. The Bliss excess in [5] is -0.122; in the experiment on NCI-H2795 (Mesothelioma), 0.044; in experiment [6], 0.214; in experiment [7], -0.028; in [8], -0.0379; in [9] it was -0.0139. In addition, the Bliss excess in experiment [10] was -0.0639; in experiment [11], 0.0162; in [12], -0.0006; in [13], -0.0228; in experiment [14], 0.0203; in the experiment with NCI-H28 (Mesothelioma), -0.0549. Further, the Bliss excess in experiment [15] amounted to 0.115; in experiment [16], 0.0125.

In the case of `C[C@@H](Oc1cc(-c2cnn(C3CCNCC3)c2)cnc1N)c1c(Cl)ccc(F)c1Cl` [Crizotinib] + Cn1cnc2c(F)c(Nc3ccc(Br)cc3Cl)c(C(=O)NOCCO)cc21 [Selumetinib] (first compound max 10 µM, 7x7, partner max 10 µM), the Bliss excess in [1] was 0.0381; in experiment [2], -0.0996; with HMV-II (Melanoma), -0.0273; in experiment [3], -0.0354; in the experiment with SH-4 (Melanoma) it was -0.0768; in experiment [4] it was -0.0615. Moreover, the Bliss excess in experiment [5] was -0.0546; in the experiment on NCI-H2795 (Mesothelioma) it was -0.0974; in experiment [6] it was -0.0779; in experiment [7] it was -0.0479; in experiment [8], -0.0239; in experiment [9] it was -0.0622. The Bliss excess in experiment [10] is -0.0135; in experiment [11], -0.043; in experiment [12], -0.046; in experiment [13] it was 0.0503; in experiment [14], 0.122; in the experiment on NCI-H28 (Mesothelioma), -0.0004. Also, the Bliss excess in experiment [15] is -0.0206; in [16] it was -0.0205.

Regarding `O=C(c1cc(Cc2n[nH]c(=O)c3ccccc23)ccc1F)N1CCN(C(=O)C2CC2)CC1` [Olaparib] + COc1nnc2ccc(N3CCC(c4ccc(OCCN5CCN(C)C(=O)[C@H]5C)cc4)CC3)nn12 [AZD5153] (first compound max 10 µM, 7x7, partner max 1 µM), the Bliss excess in experiment [1] was 0.0223; in [2], -0.0737; in the experiment on HMV-II (Melanoma), -0.046; in experiment [3] it was -0.0341; in the experiment on SH-4 (Melanoma) it was -0.11; in [4] it was -0.0194. In addition, the Bliss excess in experiment [5] was -0.0338; in the experiment on NCI-H2795 (Mesothelioma), -0.085; in experiment [6] it was -0.0022; in [7] it was -0.0296; in [8], -0.0745; in experiment [9], -0.0487. Also, the Bliss excess is -0.0923 in experiment [10]; -0.0332 in experiment [11]; -0.0573 in [12]; -0.0668 in experiment [13]; -0.0893 in experiment [14]; -0.0529 in the experiment with NCI-H28 (Mesothelioma). The Bliss excess is -0.0144 in experiment [15] and -0.0338 in experiment [16].
